From patent US9567586B2, “EpCAM aptamer for detection of cancer stem cells” (DEAKIN UNIVERSITY, priority 2012, dated 2017)

Columns and labels:
EpCAM [1] = target: T1, EpCAM (Homo sapiens, UniProt P16422); assay: Immunofluorescence staining of paraffin embedded xenograft tumour sections; set-up: from tissue; host or cells: xenograft tumours of T47D, MCF7, MDA-MB-231, HT-29 and U118MG cells grown in BALB/c-Foxn1 nu mice, formalin-fixed and paraffin-embedded; key to Quantification of anti-EpCAM staining by immunofluorescence: ‘−’ no staining; ‘+’ faint incomplete staining in >10% of cells; ‘++’ moderate complete membrance staining; ‘+++’ strong complete membrance staining
T1 sequence (P16422 24-314): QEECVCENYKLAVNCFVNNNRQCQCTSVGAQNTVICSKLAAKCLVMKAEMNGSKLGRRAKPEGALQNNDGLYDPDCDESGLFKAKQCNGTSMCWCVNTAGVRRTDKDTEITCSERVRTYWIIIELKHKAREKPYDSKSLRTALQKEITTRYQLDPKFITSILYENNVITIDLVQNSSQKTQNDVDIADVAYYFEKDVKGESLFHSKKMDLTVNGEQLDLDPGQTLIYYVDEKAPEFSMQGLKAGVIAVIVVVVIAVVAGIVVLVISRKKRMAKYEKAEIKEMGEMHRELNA
Experimental: (§1) A: Immunofluorescence staining of breast cancer (T47D, MCF7 and MDA-MB-231), colon cancer (HT-29) and glioblastoma (U118MG) xenograft tumours by EpCAM aptamers, DT3 and 23, control aptamer and the anti-EpCAM antibody, 323/A3 (Blue: nuclei; Red: EpCAM positive staining). B: Immunohistochemistry was performed with the anti-EpCAM antibody BerEP4, and all tumours were evaluated by haematoxylin and eosin staining for morphological confirmation. Aptamer staining was performed for 15 min at 37° C., while 323/A3 staining was performed at 4° C. overnight and BerEP4 was performed at room temperature for 20 min. All fluorescent images were taken at 60×, while light microscopy images were taken at 20×. Images are representative of at least three separate experiments. Scale bar: 50 μm.
(§2) The cell lines of human origin used in this study were purchased from American type Culture Collection. They were glioblastoma U118-MG; breast carcinoma MCF-7, MDA-MB-231 and T47D; and colorectal adenocarcinoma HT-29. Cells were grown and maintained in culture with Dulbecco's Modified Eagle medium (DMEM) (Invitrogen, Victoria, Australia) supplemented with 10% fetal calf serum (MCF-7, T47D, HT-29, and U118-MG), or Roswell Park Memorial Institute 1640 (RPMI 1640) (Invitrogen) with 10% fetal calf serum (MDA-MB-231). Cells were maintained at 37 ^CC in a humidified atmosphere containing 5% CO2. For xenograft studies, single cell suspensions were harvested by trypsinisation, washed with PBS and resuspended in 0.1 mL of PBS for implantation in BALB/c-Foxn1 ^nu female mice. Once tumours had reached approximately […], they were excised and fixed in 10% neutral buffered formalin prior to processing and embedding. All animal procedures were approved by Deakin University Animal Welfare Committee, and in accordance with the Australian Code of Practice for the Care and Use of Animals for Scientific Purposes.
(§3) Sections from each of the xenograft tumours were cut at 4 μm onto polylysine coated slides prior to deparaffinisation with Histoclear and rehydration through graded ethanol. Heat induced antigen retrieval was performed in a microwave oven using Tris-EDTA buffer (10 mM Tris, 1 mM EDTA, 0.05% Tween 20, pH 9.0) for 20 min and the slides were allowed to cool prior to blocking with 0.1 mg/mL tRNA, 0.1 mg/mL salmon sperm DNA and 1 mg/mL bovine serum albumin (BSA) in phosphate buffered saline (PBS) for 20 min. Following the blocking step, slides were washed in PBS containing 0.1% Tween 20 twice for 2 min prior to incubation with either aptamer or antibody. Aptamers were prepared as previously described (Shigdar S et al, supra). Briefly, aptamers were heated to 85° C. for 5 min, allowed to cool to room temperature for 10 min and then heated at 37° C. for 15 min. Slides were incubated with aptamers at 100 nM concentration in a solution of PBS containing 5 mM MgCl2, 0.1 mg/mL tRNA, 1 mg/mL BSA, 10% dextran sulphate and 500 μg/mL heparin for 15 min at 37° C. The slides were then washed three times for 5 min each prior to incubation with Bisbenzimide Hoechst 33342 (3 μg/mL) for 10 min. Slides were then mounted using VECTASHIELD and coverslipped prior to visualisation using a Fluoview FV10i laser scanning confocal microscope. All images used for direct comparison were taken with identical exposure parameters and are presented without any digital contrast alteration or background subtraction. Antibody staining was performed using the anti-EpCAM antibody 323/A3 (ab8601, Abcam). Slides were washed and blocked following the same protocol as previously described prior to antibody staining. The antibody was prepared at a concentration of 10 μg/mL and the slides were incubated overnight at 4° C. Slides were then washed three times for 5 min followed by incubation with a goat-anti-mouse IgG AlexaFluor 647 conjugate (Invitrogen) at a concentration of 10 μg/mL for 2 h prior to washing, staining with Bisbenzimide Hoechst 33342, and coverslipping. […]

HT-29 tumor sphere = assay: Penetration and retention in HT-29 tumor sphere (confocal microscopy); type: cell-based, human; conditions: for penetration into tumor sphere: 100 nM, 0.5-4 h incubation, sphere ~300-400 μm; for fluorescence signal retained in tumor sphere: 4 h incubation, wash, further 24 h in culture medium
Experimental: HT-29 or HEK293T cells were cultured in stem cell culture medium (DMEM/F12 with 20 ng/ml EGF and FGF and B27). […] After incubating for 0.5, 1, 2 or 4 h, the spheres were washed twice with PBS and imaged via fluorescence confocal microscopy. A phase contrast image of the sphere was also taken for each sample. Panel A fluorescence image for antibody EpCAM, Panel B phase contrast image for tumor sphere. Panel C: fluorescence image for aptamer EpCAM 23, Panel D: phase contrast image for tumor sphere. Panel E: fluorescence image aptamer control, Panel F: phase contrast image for tumor sphere.
Tumour spheres were incubated with EpCAM antibody, aptamer-23 or control aptamer for 4 h. After washing with PBS twice, the tumor spheres were incubated with the culture medium for a further 24 h followed by confocal microscopy. Panel A: fluorescence image for antibody or aptamer. Panel B: phase contrast image for tumour sphere.
To study the ability of EpCAM aptamer or antibody to penetrate tumors, the inventors used a three-dimensional in vitro tumor sphere model. […] After incubating for the indicated time, the spheres were washed twice with PBS and imaged via fluorescence confocal microscopy. A phase contrast image of the sphere was also taken for each sample. […] A retention study was performed whereby the tumour spheres were incubated with EpCAM antibody, aptamer-23 or control aptamer for 4 h, after washing with PBS twice, the tumor spheres were incubated with the culture medium for a further 24 h followed by confocal microscopy.

EpCAM [2] = assay: Immunofluorescence staining of paraffin embedded xenograft tumour sections; set-up: species or system human; key to Quantification of anti-EpCAM staining by immunofluorescence: ‘−’ no staining; ‘+’ faint incomplete staining in >10% of cells; ‘++’ moderate complete membrance staining; ‘+++’ strong complete membrance staining; conditions: for Quantification of anti-EpCAM staining by immunofluorescence: U118MG xenograft
Experimental: as §1, §2
as §3, with “Abcam).” for “Abcam). Slides were washed and blocked following the same protocol as previously described prior to antibody staining. The antibody was prepared at a concentration of 10 μg/mL and the slides were incubated overnight at 4° C. Slides were then washed three times for 5 min followed by incubation with a goat-anti-mouse IgG AlexaFluor 647 conjugate (Invitrogen) at a concentration of 10 μg/mL for 2 h prior to washing, staining with Bisbenzimide Hoechst 33342, and coverslipping.”

5′-ACGUAUCCCUUUUCGCGUA-3′ (RNA aptamer, fluorescent dye conjugate used, modifications not given here, further chemistry not given here) [compound 23]
staining of HT-29 xenograft sections (in words) (EpCAM [1]; HT-29 colorectal cancer xenograft): strong positive staining | Quantification of anti-EpCAM staining by immunofluorescence (EpCAM [1]; HT-29 xenograft): +++ | Quantification of anti-EpCAM staining by immunofluorescence (EpCAM [1]; MCF7 xenograft): ++ | Quantification of anti-EpCAM staining by immunofluorescence (EpCAM [1]; MDA-MB-231 xenograft): + (‘+’ faint incomplete staining in >10% of cells) | detection of EpCAM in MDA-MB-231 xenograft tumour (in words) (EpCAM [1]; MDA-MB-231 xenograft, low EpCAM expression): successfully detect EpCAM | Quantification of anti-EpCAM staining by immunofluorescence (EpCAM [1]; T47D xenograft): +++ | staining of human breast cancer xenografts (in words) (EpCAM [1]; T47D, MCF7 and MDA-MB-231 xenografts, 100 nM, 15 min, 37° C., dextran sulphate and heparin): highly sensitive staining | penetration into tumor sphere (HT-29 tumor sphere): could penetrate into the core or center of the tumor sphere | fluorescence signal retained in tumor sphere (HT-29 tumor sphere): clearly detectable signal | retention by the tumor cells (HT-29 tumor sphere; after 4 h incubation and wash): at least 24 hours | Quantification of anti-EpCAM staining by immunofluorescence (EpCAM [2]): − | staining of U118MG xenograft (in words) (EpCAM [2]; U118MG xenograft that does not express EpCAM): no staining detectable

5′-DY647-mGCmGACUmGmGUUmACCCmGmGUCmGdT-3′ (GCGACUGGUUACCCGGUCGN; 5' DY647, 2'-O-methyl, 3' dT, further chemistry not given here) [Control]
Quantification of anti-EpCAM staining by immunofluorescence (EpCAM [1]; HT-29 xenograft): − | Quantification of anti-EpCAM staining by immunofluorescence (EpCAM [1]; MCF7 xenograft): − | Quantification of anti-EpCAM staining by immunofluorescence (EpCAM [1]; MDA-MB-231 xenograft): − | Quantification of anti-EpCAM staining by immunofluorescence (EpCAM [1]; T47D xenograft): − | penetration into tumor sphere (HT-29 tumor sphere): only limited non-specific binding | fluorescence signal retained in tumor sphere (HT-29 tumor sphere): very weak signal | Quantification of anti-EpCAM staining by immunofluorescence (EpCAM [2]): −
